Data: patent publication US20070167411A1, “Compositions for treating angina” (Medicure International Inc., priority 2003, published 2007)

Key:
[1] = test system: isolated non-ischemic working rat heart; assay: Glucose oxidation rates in isolated working rat heart perfusion ([14C] glucose, 14CO2 production); conditions: 60 minutes aerobic perfusion, compound added about 5 minutes into aerobic period, saline control 1580±183
Description: The goal was to determine if […] altered glucose oxidation rates or cardiac function in the isolated non-ischemic working rat heart model. This was achieved by subjecting rat hearts to 60 minutes of aerobic perfusion. […] was added about 5 minutes into the aerobic period and the effects of […] on glucose metabolism was determined during the aerobic period. […] Rat hearts were cannulated for isolated working heart perfusions as described previously (Lopaschuk et al., J Pharmacol Exp Ther. 1993 Jan; 264(1):135-44). In brief, male Sprague-Dawley rats (0.3-0.35 kg) were anesthetized with pentobarbital sodium (60 mg/kg i.p.). The hearts were quickly excised, the aorta was cannulated, and a retrograde perfusion at 37° C. was initiated at a hydrostatic pressure of 60 mm Hg. Hearts were trimmed of excess tissue, and the pulmonary artery and the opening to the left atrium were then cannulated. […] Spontaneously beating hearts were used in all perfusions, heart rate and aortic pressure were measured with a Biopac Systems Inc. blood pressure transducer connected to the aortic outflow line. Cardiac output and aortic flow were measured with Transonic […] ultrasonic flow probes in the preload and afterload lines, respectively. Coronary flow was calculated as the difference between cardiac output and aortic flow. […]

[2] = water, alcohol, and ether; cited from earlier work

Row | SMILES | glucose oxidation rates [1] | solubility [2]
1 | O=C(O)C(Cl)Cl [DCA, dichloroacetic acid, reference compound] | 2422±140 | –
2 | Cc1ncc(COP(=O)(O)O)c(C=O)c1O [Example P5P, 3-hydroxy-2-methyl-5-[(phosphonooxy)methyl]-4-pyridine-carboxaldehyde] | 2253±230 | essentially insoluble in water, alcohol, and ether
